Experimental data as given in patent US9133158B2, “Bicyclic dihydroisoquinoline-1-one derivatives” (Hoffmann-La Roche Inc., priority 2011, dated 2015).
pEC50: −log10 of the molar value.

Key:
human CYP11B2 = target: T1, human CYP11B2 (Homo sapiens, UniProt P19099); assay: G-402 cellular enzyme assay, human CYP11B2 (aldosterone release, HTRF); assay type: cell-based; conditions: G-402 cells, 1 μM Deoxycorticosterone
T1 construct: expressed in transfected cells
T1 sequence (P19099 25-503): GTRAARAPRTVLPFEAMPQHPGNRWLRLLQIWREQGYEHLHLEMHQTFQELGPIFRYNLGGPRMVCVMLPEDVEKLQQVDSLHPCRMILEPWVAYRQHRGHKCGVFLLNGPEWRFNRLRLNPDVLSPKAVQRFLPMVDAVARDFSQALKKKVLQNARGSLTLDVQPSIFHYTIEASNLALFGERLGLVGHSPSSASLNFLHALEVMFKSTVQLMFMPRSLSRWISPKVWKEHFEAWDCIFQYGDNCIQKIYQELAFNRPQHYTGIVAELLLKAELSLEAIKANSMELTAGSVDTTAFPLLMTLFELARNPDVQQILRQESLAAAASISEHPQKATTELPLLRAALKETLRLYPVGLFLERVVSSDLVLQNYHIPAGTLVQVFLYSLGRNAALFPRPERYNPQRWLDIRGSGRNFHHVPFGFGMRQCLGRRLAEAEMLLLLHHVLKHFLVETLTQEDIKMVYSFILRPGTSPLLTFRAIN
In short: (§1)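 Steroid output from supernatants, quantified by HTRF as cortisol for CYP11B1 or aldosterone for CYP11B2, gave EC50 values by least-squares 4-parameter MMF fitting against inhibitor concentration. Stably transfected G-402 cells carrying the human enzyme received 1 μM deoxycortisol or 1 μM deoxycorticosterone respectively, 16 h, DMEM/F12 with 2.5% charcoal-stripped FCS.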

human CYP11B1 = target: T2, human CYP11B1 (Homo sapiens, UniProt P15538); assay: G-402 cellular enzyme assay, human CYP11B1 (cortisol release, HTRF); assay type: cell-based; conditions: G-402 cells, 1 μM Deoxycortisol
T2 construct: expressed in transfected cells
T2 sequence (P15538 25-503): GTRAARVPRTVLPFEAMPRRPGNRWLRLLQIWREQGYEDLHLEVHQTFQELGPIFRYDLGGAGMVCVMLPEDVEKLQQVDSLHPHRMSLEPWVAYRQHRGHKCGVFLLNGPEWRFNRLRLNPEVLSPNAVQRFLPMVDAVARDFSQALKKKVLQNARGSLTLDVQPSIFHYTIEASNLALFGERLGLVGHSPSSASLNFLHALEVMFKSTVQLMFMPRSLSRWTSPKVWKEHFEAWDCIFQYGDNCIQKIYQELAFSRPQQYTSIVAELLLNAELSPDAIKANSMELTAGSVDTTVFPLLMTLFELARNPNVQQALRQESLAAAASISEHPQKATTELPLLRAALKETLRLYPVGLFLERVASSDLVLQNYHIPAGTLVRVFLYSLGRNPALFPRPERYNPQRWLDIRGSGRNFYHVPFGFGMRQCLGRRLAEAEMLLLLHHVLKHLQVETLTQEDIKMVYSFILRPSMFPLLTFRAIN
In short: as §1

pEC50 (human CYP11B2) | pEC50 (human CYP11B1) | Compound
6.24 | 5.00 | NC(=O)COc1cncc(N2CCc3cc(Cl)ccc3C2=O)c1 [Example 253, 2-[5-(6-Chloro-1-oxo-3,4-dihydro-1H-isoquinolin-2-yl)-pyridin-3-yloxy]-acetamide]
5.67 | 4.49 | CNC(=O)COc1cncc(N2CCc3cc(Cl)ccc3C2=O)c1 [Example 254, 2-[5-(6-Chloro-1-oxo-3,4-dihydro-1H-isoquinolin-2-yl)-pyridin-3-yloxy]-N-methyl-acetamide]
5.55 | 5.12 | COC(=O)COc1cncc(N2CCc3cc(Cl)ccc3C2=O)c1 [Example 255, [5-(6-Chloro-1-oxo-3,4-dihydro-1H-isoquinolin-2-yl)-pyridin-3-yloxy]-acetic acid methyl ester]
7.95 | 7.02 | O=C1c2ccc(Cl)cc2CCN1c1cncc(CNc2ccccc2)c1 [Example 257, 6-Chloro-2-(5-phenylaminomethyl-pyridin-3-yl)-3,4-dihydro-2H-isoquinolin-1-one]
8.43 | 7.38 | O=C1c2ccc(Cl)cc2CCN1c1cncc(CNc2ccc(F)cc2)c1 [Example 258, 6-Chloro-2-{5-[(4-fluoro-phenylamino)-methyl]-pyridin-3-yl}-3,4-dihydro-2H-isoquinolin-1-one]
7.91 | 7.13 | O=C1c2ccc(Cl)cc2CCN1c1cncc(CNc2cccc(F)c2)c1 [Example 259, 6-Chloro-2-{5-[(3-fluoro-phenylamino)-methyl]-pyridin-3-yl}-3,4-dihydro-2H-isoquinolin-1-one]
6.33 | 6.46 | O=C1c2ccc(Cl)cc2CCN1c1cncc(CNc2ccc(Cl)cc2)c1 [Example 260, 6-Chloro-2-{5-[(4-chloro-phenylamino)-methyl]-pyridin-3-yl}-3,4-dihydro-2H-isoquinolin-1-one]
7.57 | 6.98 | O=C1c2ccc(Cl)cc2CCN1c1cncc(CNc2cccc(Cl)c2)c1 [Example 261, 6-Chloro-2-{5-[(3-chloro-phenylamino)-methyl]-pyridin-3-yl}-3,4-dihydro-2H-isoquinolin-1-one]
7.85 | 6.52 | O=C1c2ccc(Cl)cc2CCN1c1cncc(CNc2cc[nH]n2)c1 [Example 262, 6-Chloro-2-{5-[(1H-pyrazol-3-ylamino)-methyl]-pyridin-3-yl}-3,4-dihydro-2H-isoquinolin-1-one]
6.31 | 5.31 | O=C(Cc1cncc(N2CCc3cc(Cl)ccc3C2=O)c1)N1CCOCC1 [Example 263, 6-Chloro-2-[5-(2-morpholin-4-yl-2-oxo-ethyl)-pyridin-3-yl]-3,4-dihydro-2H-isoquinolin-1-one]
6.07 | 5.38 | O=C(Cc1cncc(N2CCc3cc(Cl)ccc3C2=O)c1)NCCO [Example 264, 2-[5-(6-Chloro-1-oxo-3,4-dihydro-4H-isoquinolin-2-yl)-pyridin-3-yl]-N-(2-hydroxy-ethyl)-acetamide]
6.36 | 5.30 | CNC(C)c1cncc(N2CCc3cc(Cl)ccc3C2=O)c1 (centres unmarked) [Example 265, 6-Chloro-2-[5-(1-methylamino-ethyl)-pyridin-3-yl]-3,4-dihydro-2H-isoquinolin-1-one]
7.35 | 6.56 | CC(c1cncc(N2CCc3cc(Cl)ccc3C2=O)c1)N(C)C (centres unmarked) [Example 266, 6-Chloro-2-[5-(1-dimethylamino-ethyl)-pyridin-3-yl]-3,4-dihydro-2H-isoquinolin-1-one]
5.79 | 4.95 | Cn1ccnc1C(=O)c1cncc(N2CCc3cc(Cl)ccc3C2=O)c1 [Example 267, 6-Chloro-2-[5-(1-methyl-4H-imidazole-2-carbonyl)-pyridin-3-yl]-3,4-dihydro-2H-isoquinolin-1-one]
5.78 | 4.85 | Cn1cnnc1Cc1cncc(N2CCc3cc(Cl)ccc3C2=O)c1 [Example 268, 6-Chloro-2-[5-(4-methyl-4H-[1,2,4]-triazol-3-ylmethyl)-pyridin-3-yl]-3,4-dihydro-2H-isoquinolin-1-one]
7.34 | 6.37 | CC(c1cncc(N2CCc3cc(Cl)ccc3C2=O)c1)n1nccn1 (centres unmarked) [Example 269, 6-Chloro-2-[5-(1-[1,2,3]triazol-2-yl-ethyl)-pyridin-3-yl]-3,4-dihydro-2H-isoquinolin-1-one]

pEC50 (human CYP11B2) | pEC50 (human CYP11B1) | Compound
8.20 | 7.55 | CC(c1cncc(N2CCc3cc(Cl)ccc3C2=O)c1)n1ccnc1 (centres unmarked) [Example 270, 6-Chloro-2-[5-(1-imidazol-1-yl-ethyl)-pyridin-3-yl]-3,4-dihydro-2H-isoquinolin-1-one]
7.61 | 6.60 | CC(c1cncc(N2CCc3cc(Cl)ccc3C2=O)c1)n1cccn1 (centres unmarked) [Example 271, 6-Chloro-2-[5-(1-pyrazol-1-yl-ethyl)-pyridin-3-yl]-3,4-dihydro-2H-isoquinolin-1-one]
7.22 | 6.68 | CC(Nc1ncco1)c1cncc(N2CCc3cc(Cl)ccc3C2=O)c1 (centres unmarked) [Example 272, 6-Chloro-2-{5-[1-(oxazol-2-ylamino)-ethyl]-pyridin-3-yl}-3,4-dihydro-2H-isoquinolin-1-one]
7.19 | 6.35 | CC(c1cncc(N2CCc3cc(Cl)ccc3C2=O)c1)n1cncn1 (centres unmarked) [Example 273, 6-Chloro-2-[5-(1-[1,2,4]triazol-1-yl-ethyl)-pyridin-3-yl]-3,4-dihydro-2H-isoquinolin-1-one]
6.89 | 5.98 | CC(c1cncc(N2CCc3cc(Cl)ccc3C2=O)c1)N1CCCC1=O (centres unmarked) [Example 274, 6-Chloro-2-{5-[1-(2-oxo-pyrrolidin-1-yl)-ethyl]-pyridin-3-yl}-3,4-dihydro-2H-isoquinolin-1-one]
6.14 | 5.11 | CC(c1cncc(N2CCc3cc(Cl)ccc3C2=O)c1)N1CCOC1=O (centres unmarked) [Example 275, 6-Chloro-2-{5-[1-(2-oxo-oxazolidin-3-yl)-ethyl]-pyridin-3-yl}-3,4-dihydro-2H-isoquinolin-1-one]
6.55 | 5.69 | CC(NS(C)(=O)=O)c1cncc(N2CCc3cc(Cl)ccc3C2=O)c1 (centres unmarked) [Example 276, N-{1-[5-(6-Chloro-1-oxo-3,4-dihydro-1H-isoquinolin-2-yl)-pyridin-3-yl]-ethyl}-methanesulfonamide]
7.19 | 6.79 | CC(Nc1cccc(F)c1)c1cncc(N2CCc3cc(Cl)ccc3C2=O)c1 (centres unmarked) [Example 277, 6-Chloro-2-{5-[1-(3-fluoro-phenylamino)-ethyl]-pyridin-3-yl}-3,4-dihydro-2H-isoquinolin-1-one]
8.21 | 7.46 | CC(Nc1ccccc1)c1cncc(N2CCc3cc(Cl)ccc3C2=O)c1 (centres unmarked) [Example 278, 6-Chloro-2-[5-(1-phenylamino-ethyl)-pyridin-3-yl]-3,4-dihydro-2H-isoquinolin-1-one]
6.22 | 4.95 | C[S+]([O-])c1cncc(N2CCc3cc(Cl)ccc3C2=O)c1 (centres unmarked) [Example 279, 6-Chloro-2-(5-methanesulfinyl-pyridin-3-yl)-3,4-dihydro-2H-isoquinolin-1-one]
9.40 | 8.52 | Cn1cc(Cc2cncc(N3C(=O)c4ccc(Cl)cc4C3(C)C)c2)cn1 [Example 281, 5-Chloro-3,3-dimethyl-2-[5-(1-methyl-1H-pyrazol-4-ylmethyl)-pyridin-3-yl]-2,3-dihydro-isoindol-1-one]
7.37 | 6.32 | CCC1c2cc(Cl)ccc2C(=O)N1c1cncc(OC(F)F)c1 (centres unmarked) [Example 282, 5-Chloro-2-(5-difluoromethoxy-pyridin-3-yl)-3-ethyl-2,3-dihydro-isoindol-1-one]
7.18 | 6.20 | CCC1c2cc(Cl)ccc2C(=O)N1c1cncc(C(C)O)c1 (centres unmarked) [Example 283, 5-Chloro-3-ethyl-2-[5-(1-hydroxy-ethyl)-pyridin-3-yl]-2,3-dihydro-isoindol-1-one]
7.69 | 6.60 | CCC1c2cc(Cl)ccc2C(=O)N1c1cnccc1Cl (centres unmarked) [Example 284, 5-Chloro-2-(4-chloro-pyridin-3-yl)-3-ethyl-2,3-dihydro-isoindol-1-one]
8.12 | 6.45 | CC1(C)c2cc(Cl)ccc2C(=O)N1c1cnccc1Cl [Example 285, 5-Chloro-2-(4-chloro-pyridin-3-yl)-3,3-dimethyl-2,3-dihydro-isoindol-1-one]
